Results from paper PMC4242080, “NMR structure of the water soluble Aβ17–34 peptide” (Bioscience Reports, 2014).

Experiment: Peptide solubility in aqueous buffers and water
Experimental: These peptides contained two glutamate or arginine residues at the N- and C-termini for increased solubility. The full amino acid sequence of the purchased Aβ was […] (Peptide 2.0 Inc. Company) and […] (Sigma-Aldrich). The peptide mass was verified using MALDI-TOF mass spectroscopy. To dissolve the peptides, phosphate and acetate aqueous buffers were prepared. None of the buffers contained hydrophobic solvents known to solubilize and stabilize α-helices (i.e. TFE or HFPI) or surfactants known to dissolve hydrophobic peptides (i.e. SDS). Henceforth, the Aβ17–34 peptide refers to the peptide flanked by two glutamates.
To solubilize Aβ, several approaches were taken. One approach was to add two arginines at the N- and C-termini. […] Another approach was to add two glutamic acids at the N- and C-termini.

Row | SMILES | solubility in acetate and phosphate buffers at pH 1, 7 and 10 (acetate and phosphate aqueous buffers, pH 1, 7 and 10, no TFE, HFPI or SDS, compared with peptide without flanking residues) | effect of terminal residue addition on solubility | solubility in water | solubility in 50 mM acetate buffer at pH 7 (pH 7) | solubility in 50 mM phosphate buffer at pH 7 (pH 7)
1 | CC[C@H](C)[C@H](NC(=O)[C@H](C)NC(=O)CNC(=O)[C@H](CCCCN)NC(=O)[C@H](CC(N)=O)NC(=O)[C@H](CO)NC(=O)CNC(=O)[C@@H](NC(=O)[C@H](CC(=O)O)NC(=O)[C@H](CCC(=O)O)NC(=O)[C@H](C)NC(=O)[C@H](Cc1ccccc1)NC(=O)[C@H](Cc1ccccc1)NC(=O)[C@@H](NC(=O)[C@H](CC(C)C)NC(=O)[C@H](CCCNC(=N)N)NC(=O)[C@@H](N)CCCNC(=N)N)C(C)C)C(C)C)C(=O)N[C@H](C(=O)NCC(=O)N[C@@H](CC(C)C)C(=O)N[C@@H](CCCNC(=N)N)C(=O)N[C@@H](CCCNC(=N)N)C(=O)O)[C@@H](C)CC | did not improve solubility | – | – | – | –
2 | CC[C@H](C)[C@H](NC(=O)[C@H](C)NC(=O)CNC(=O)[C@H](CCCCN)NC(=O)[C@H](CC(N)=O)NC(=O)[C@H](CO)NC(=O)CNC(=O)[C@@H](NC(=O)[C@H](CC(=O)O)NC(=O)[C@H](CCC(=O)O)NC(=O)[C@H](C)NC(=O)[C@H](Cc1ccccc1)NC(=O)[C@H](Cc1ccccc1)NC(=O)[C@@H](NC(=O)[C@H](CC(C)C)NC(=O)[C@H](CCC(=O)O)NC(=O)[C@@H](N)CCC(=O)O)C(C)C)C(C)C)C(=O)N[C@H](C(=O)NCC(=O)N[C@@H](CC(C)C)C(=O)N[C@@H](CCC(=O)O)C(=O)N[C@@H](CCC(=O)O)C(=O)O)[C@@H](C)CC [Aβ17–34 peptide] | – | improved solubility drastically | not in water | soluble | soluble
